# From patent publication US12156860B2, “Disorders implicating PUFA oxidation” (BioJiva LLC, priority 2011, dated 2024)
# Legend:
# rat hearts = assay: Langendorf isolated heart perfusion model, echo- and electrocardiography; format: in vivo; conditions: rats, 8 weeks supplementation
# Method: Test compounds disclosed herein can also be assessed using the Langendorf isolated heart perfusion model. […] Following the treatment period, rat hearts are analyzed by echocardiography for measurement of muscle thickness of the left ventricle, left atrium, right ventricle, and right atrium and electrocardiography for measuring electrical activity. After live evaluation, rats are humanely sacrificed and their hearts isolated and connected to the Langendorf isolated perfusion system (See Jennings et al., Am. Surg. 2004; 70(9), 797-800). Left ventricular pressure is then measured with a left ventricular balloon. Coronary flow is also measured. Cardiac function is further assessed by determining the effect of administration of test compounds on the rate of contraction and relaxation of the heart. To determine whether any observed effects on cardiac function are due to the effect of the test compound on mitochondrial function, mitochondrial activity pre-ischemia and post-ischemia is assessed for each of the treatment groups.
# [1] = Kinetics of O2 consumption during AMVN-initiated oxidation in chlorobenzene (glass capillary microvolumeter); format: physicochemical
# Method: FIG. 7. Kinetics of O2 consumption accompanied the oxidation of 0.71 M LA (plots 1 and 2) and 0.71 M D2-LA (plot 3) in chlorobenzene initiated by 40 mM AMVN at 37° C. Plot 2-0.23 mM HPMC was added to 0.71 M LA.
# The kinetics of oxygen consumption during the oxidation of LA and D2-LA was studied with a glass capillary microvolumeter (FIG. 7). The rate of oxidation, ROX, was measured as a slope of [O2] traces. The rate of initiation, RIN, was determined by the inhibitor method with HPMC (“6-hydroxy-2,2,5,7,8-pentamethylbenzochroman”) as a reference inhibitor. RIN was calculated from the induction period of inhibited oxidation, tIND: RIN=2·[HPMC]/tIND. […] When the process was inhibited by 0.23 mM chain-breaking antioxidant HPMC, the duration of the induction period, tIND, was about 48 min, with the RIN value of around 0.16×10^−6 M/s. […] The latter precludes a direct determination of RIN. […] An estimated kinetic isotope effect (“KIE”), from comparison of ROX for LA and D2-LA, was around 6.1×10^−6/0.18×10^−6≈35. A similar KIE was determined during the oxidation of LA and 11,11-d2-LA in Triton X-100 aqueous micelles (data not shown). For comparative purposes, the theoretical KIE is 6.9 at 25° C. See Carpenter, “Determination of Organic Reaction Mechanisms” (John Wiley & Sons, 1984), p. 89.
smiles,measurement,setting,value
"[2H]C([2H])(/C=C\CCCCC)/C=C\CCCCCCCC(=O)O [D2-LA, 11,11-Dideutero-cis,cis-9,12-Octadecadienoic acid]",symptoms and markers associated with cardiac disorders,rat hearts,reduce symptoms and markers associated with cardiac disorders
same,"rate of oxidation, ROX","[1]; 0.71 M in chlorobenzene, 40 mM AMVN, 37° C.",1.8e-07 M/s
same,kinetic isotope effect (KIE) from comparison of ROX for LA and D2-LA,"[1]; chlorobenzene, 37° C.",≈ 35
same,"length of the kinetic chain, ROX/RIN",[1]; for D2-LA assuming RIN comparable to that of LA,≈ 1.1
